Like-named read-outs stand apart in the source and are kept apart here.
What was measured:
[1] = tested on: cholesterol biosynthesis; experiment: Inhibition of cholesterol biosynthesis; format: biochemical
[2] = molecular target: T1, 3-hydroxy-3-methylglutaryl-CoA reductase (Rattus norvegicus, UniProt P51639); experiment: Inhibition of 3-hydroxy-3-methylglutaryl-CoA reductase; format: biochemical
T1 construct: Employed as an enzyme microsome of rat liver; from tissue; host or cells: rat liver microsomes
T1 sequence (P51639 1-887): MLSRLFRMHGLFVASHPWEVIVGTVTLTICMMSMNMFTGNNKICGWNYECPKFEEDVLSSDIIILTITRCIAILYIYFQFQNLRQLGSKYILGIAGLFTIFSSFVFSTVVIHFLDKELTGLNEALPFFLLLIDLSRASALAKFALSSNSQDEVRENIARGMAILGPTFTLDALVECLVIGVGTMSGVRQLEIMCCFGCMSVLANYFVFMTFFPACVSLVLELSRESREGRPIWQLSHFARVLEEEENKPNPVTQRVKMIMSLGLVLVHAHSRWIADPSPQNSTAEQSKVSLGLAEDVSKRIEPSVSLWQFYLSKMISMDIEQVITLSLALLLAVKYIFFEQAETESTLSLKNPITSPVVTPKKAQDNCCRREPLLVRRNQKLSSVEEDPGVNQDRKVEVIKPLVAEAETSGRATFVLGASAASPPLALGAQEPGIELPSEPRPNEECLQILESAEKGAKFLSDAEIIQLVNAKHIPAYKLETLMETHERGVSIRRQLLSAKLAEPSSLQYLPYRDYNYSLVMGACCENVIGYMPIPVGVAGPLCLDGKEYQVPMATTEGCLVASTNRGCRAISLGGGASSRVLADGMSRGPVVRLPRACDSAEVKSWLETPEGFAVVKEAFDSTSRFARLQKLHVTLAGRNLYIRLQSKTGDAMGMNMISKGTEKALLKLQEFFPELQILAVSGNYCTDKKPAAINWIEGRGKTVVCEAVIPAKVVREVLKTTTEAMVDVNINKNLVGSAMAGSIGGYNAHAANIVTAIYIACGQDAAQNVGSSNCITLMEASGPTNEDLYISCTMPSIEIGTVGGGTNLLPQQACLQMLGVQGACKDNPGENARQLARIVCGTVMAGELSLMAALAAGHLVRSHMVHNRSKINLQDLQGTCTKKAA
Description: Inhibition activity of cholesterol biosynthesis [determined according to the method disclosed in J. Biol. Chem., 234, 2835 (1959)] and inhibition activity on 3-hydroxy-3-methylglutaryl-CoA reductase [determined according to the method disclosed in Anal. Biochem., 31, 383 (1969)] of these compounds are summarized in Table 1.
*Employed as an enzyme microsome of rat liver.

[3] = tested on: total serum cholesterol in beagle dogs; experiment: Lowering activity of blood cholesterol in beagle dogs; format: in vivo, beagle dog; conditions: for inhibition in vivo at 25 mg/kg/day / inhibition in vivo at 100 mg/kg/day: Canis lupus familiaris, po, 120 h, read-out: Lowering rate of total serum cholesterol
Description: The test was to orally administer an encapsulated test sample twice per day, in the morning (9 o'clock) and evening (16 o'clock), for continuous 5 days, collect a blood sample in the morning after 5 days and determine a total cholesterol level in serum by a conventional method.

[4] = tested on: serum cholesterol in rats; experiment: Lowering activity of blood cholesterol in rats; format: in vivo, rat; conditions: for inhibition in vivo at 5 mg/kg / inhibition in vivo at 20 mg/kg: Rattus norvegicus, po, 18 h, read-out: Lowering rate of serum cholesterol
Procedure: A lowering activity of blood cholesterol in rats was assayed on rats. The test was to orally administer a test sample suspended in water, collect a blood sample after 18 hours and determine a cholesterol level in serum by a conventional method.

[5] = Acute toxicity in mouse; conditions: in vivo, ip
Procedure: (§1) Acute toxicity of ML-236B carboxylic acid derivatives (I) was determined in oral and intraperitoneal administration (both as an aqueous suspension).

[6] = Acute toxicity in rat; conditions: in vivo, po
Procedure: as §1

[7] = tested on: Mouse; experiment: Acute toxicity in mouse; conditions: aqueous suspension
Procedure: as §1

[8] = tested on: Rat; experiment: Acute toxicity in rat; conditions: aqueous suspension
Procedure: as §1

[9] = enzyme: microsome of rat liver, read-out: Concentration to inhibit 50% of 3-hydroxy-3-methylglutaryl-CoA reductase (converted)
[10] = beagle dogs, 25 mg/kg/day, oral twice per day, 5 days
[11] = beagle dogs, 100 mg/kg/day, oral twice per day, 5 days
[12] = rats, 5 mg/kg, oral, after 18 hours
[13] = rats, 20 mg/kg, oral, after 18 hours
[14] = LD50, mouse, aqueous suspension

SMILES | Concentration to inhibit 50% of cholesterol biosynthesis [1] [µg/mL] | IC50 [2, 9] [nM] | inhibition in vivo at 25 mg/kg/day [3, 10] [%] | inhibition in vivo at 100 mg/kg/day [3, 11] [%] | inhibition in vivo at 5 mg/kg [4, 12] [%] | inhibition in vivo at 20 mg/kg [4, 13] [%] | LD50 [5, 14] [mg/kg] | LD50 ([6]; LD50, rat, aqueous suspension) [mg/kg] | other results
CCC(C)C(=O)OC1CCC=C2C=CC(C)C(CCC(O)CC(O)CC(=O)OC(C)C)C21 (centres unmarked) [isopropyl, Isopropyl ML-236B carboxylate] | 0.04 | 355 | 19 | 30 | 16 | 25 | > 500 | > 2000 | –
CCC(C)C(=O)OC1CCC=C2C=CC(C)C(CCC(O)CC(O)CC(=O)OCC(=O)c3ccc(C)cc3)C21 (centres unmarked) [4-methylphenacyl, 4-Methylphenacyl ML-236B carboxylate] | 0.01 | 370 | 20 | 33 | 14 | 19 | > 500 | > 2000 | –
CCC(C)C(=O)OC1CCC=C2C=CC(C)C(CCC(O)CC(O)CC(=O)OCc3ccc(OC)cc3)C21 (centres unmarked) [4-methoxybenzyl, 4-Methoxybenzyl ML-236B carboxylate] | 0.01 | – | – | – | – | – | – | – | IC50 [2]: 378 nM; inhibition in vivo at 25 mg/kg/day [3]: 26%; inhibition in vivo at 100 mg/kg/day [3]: 36%; inhibition in vivo at 5 mg/kg [4]: 17%; inhibition in vivo at 20 mg/kg [4]: 20%; LD50 [5]: > 500 mg/kg; LD50 [6]: > 2000 mg/kg
CCC(C)C(=O)OC1CCC=C2C=CC(C)C(CCC(O)CC(O)CC(=O)OCC(=O)c3ccccc3)C21 (centres unmarked) [phenacyl, Phenacyl ML-236B carboxylate] | 0.01 | 380 | 32 | 42 | 14 | 21 | > 500 | > 2000 | –
CCC(C)C(=O)OC1CCC=C2C=CC(C)C(CCC(O)CC(O)CC(=O)O)C21 (centres unmarked) [Ca, Calcium ML-236B carboxylate] | 0.006 | – | – | – | – | – | – | – | Lowering rate of total serum cholesterol [3, 10]: 28%; Lowering rate of total serum cholesterol [3, 11]: 44%; Lowering rate of serum cholesterol ([4]; rats, 5 mg/kg, oral, after 18 hours, 5 mg/kg): 16.5%; Lowering rate of serum cholesterol ([4]; rats, 20 mg/kg, oral, after 18 hours, 20 mg/kg): 20.9%; LD50 ([7]; i.p.): > 500 mg/kg; LD50 ([7]; p.o., listed as Ca salt): > 2,000 mg/kg; LD50 ([8]; i.p.): > 500 mg/kg; LD50 ([8]; p.o., listed as Ca salt): > 2,000 mg/kg
CCC(C)C(=O)OC1CCC=C2C=CC(C)C(CCC(O)CC(O)CC(=O)OCc3ccccc3)C21 (centres unmarked) [benzyl, Benzyl ML-236B carboxylate] | 0.01 | 401 | 24 | 38 | 14 | 24 | > 500 | > 2000 | –
CCC(C)C(=O)OC1CCC=C2C=CC(C)C(CCC(O)CC(O)CC(=O)OCc3ccc(C)cc3)C21 (centres unmarked) [4-methylbenzyl, 4-Methylbenzyl ML-236B carboxylate] | 0.01 | 390 | 30 | 41 | 13 | 26 | > 500 | > 2000 | –
CCOC(=O)CC(O)CC(O)CCC1C(C)C=CC2=CCCC(OC(=O)C(C)CC)C21 (centres unmarked) [ethyl, Ethyl ML-236B carboxylate] | 0.01 | – | – | – | – | – | – | – | IC50 [2]: 366 nM; inhibition in vivo at 25 mg/kg/day [3]: 13%; inhibition in vivo at 100 mg/kg/day [3]: 19%; inhibition in vivo at 5 mg/kg [4]: 19%; inhibition in vivo at 20 mg/kg [4]: 25%; LD50 [5]: > 500 mg/kg; LD50 [6]: > 2000 mg/kg

Reference: patent US4137322A, “ML-236B carboxylic acid derivatives and their use as antihyperlipemic agents” (Sankyo Company Limited, priority 1976, dated 1979)
